From ChEMBL document CHEMBL1201862, “PubChem BioAssay data set” (2004)
Active and inactive are the calls of the source.

How the values were obtained:
[1] = target: Sphingosine 1-phosphate receptor 3 (Homo sapiens, UniProt Q99500); assay: Dose response cell-based high throughput screening assay for antagonists of the Sphingosine 1-Phosphate Receptor 3 (S1P3). [Related pubchem assays: 1429, 485 ]; type: functional
[2] = target: T1, Short transient receptor potential channel 4 (Mus musculus, UniProt Q9QUQ5); assay: mouse TRPC4 channel activators, dose response, cell-based, HEK293 TRPC4/mu-opioid, Fluo-4 calcium (AID 434937); type: functional
T1 sequence (Q9QUQ5 whole entry): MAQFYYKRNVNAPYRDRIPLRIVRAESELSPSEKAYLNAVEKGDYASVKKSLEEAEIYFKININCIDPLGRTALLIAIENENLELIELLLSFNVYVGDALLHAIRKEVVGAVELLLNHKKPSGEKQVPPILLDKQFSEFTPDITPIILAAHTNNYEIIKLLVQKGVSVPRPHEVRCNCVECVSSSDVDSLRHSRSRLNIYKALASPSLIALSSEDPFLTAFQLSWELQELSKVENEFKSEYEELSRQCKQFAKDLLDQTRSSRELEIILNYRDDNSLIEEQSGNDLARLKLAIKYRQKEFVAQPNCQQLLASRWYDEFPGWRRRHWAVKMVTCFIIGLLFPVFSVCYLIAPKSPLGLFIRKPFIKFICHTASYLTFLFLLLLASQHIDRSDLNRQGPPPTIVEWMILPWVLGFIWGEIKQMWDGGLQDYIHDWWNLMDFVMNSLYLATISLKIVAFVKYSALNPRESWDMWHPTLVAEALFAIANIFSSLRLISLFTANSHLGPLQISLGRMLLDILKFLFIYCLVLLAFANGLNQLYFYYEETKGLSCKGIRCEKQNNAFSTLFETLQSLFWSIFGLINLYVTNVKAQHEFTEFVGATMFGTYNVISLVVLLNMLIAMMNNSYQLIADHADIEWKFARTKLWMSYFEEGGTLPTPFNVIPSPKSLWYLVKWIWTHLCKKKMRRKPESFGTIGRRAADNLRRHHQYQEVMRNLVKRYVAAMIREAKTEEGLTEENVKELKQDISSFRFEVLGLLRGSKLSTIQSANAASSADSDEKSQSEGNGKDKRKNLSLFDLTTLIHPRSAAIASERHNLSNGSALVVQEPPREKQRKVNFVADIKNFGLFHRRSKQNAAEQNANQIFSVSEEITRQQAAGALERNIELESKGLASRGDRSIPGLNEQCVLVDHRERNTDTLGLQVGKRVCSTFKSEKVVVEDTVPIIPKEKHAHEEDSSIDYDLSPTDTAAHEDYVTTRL

[3] = target: 5-hydroxytryptamine receptor 1E (Homo sapiens, UniProt P28566); assay: Counterscreen assay for S1P3 antagonists: Dose response cell-based high throughput screening assay to identify antagonists of the 5-Hydroxytryptamine Receptor Subtype 1E (5HT1E). [Related pubchem assays: 1429, 485 ]; type: functional
Chain of 5-hydroxytryptamine receptor 1E (P28566 whole entry): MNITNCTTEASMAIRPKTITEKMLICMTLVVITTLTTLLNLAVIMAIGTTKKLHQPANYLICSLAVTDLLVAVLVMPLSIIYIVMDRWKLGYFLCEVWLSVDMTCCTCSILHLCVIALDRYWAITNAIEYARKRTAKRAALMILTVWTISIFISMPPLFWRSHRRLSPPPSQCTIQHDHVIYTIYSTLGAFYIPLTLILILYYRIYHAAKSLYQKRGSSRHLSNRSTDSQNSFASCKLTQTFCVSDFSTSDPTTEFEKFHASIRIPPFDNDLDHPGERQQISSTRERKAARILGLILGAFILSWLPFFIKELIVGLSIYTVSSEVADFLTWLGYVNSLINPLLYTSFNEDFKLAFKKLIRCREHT

[4] = target: NADPH oxidase 1 (Homo sapiens, UniProt Q9Y5S8); assay: Luminescence-based cell-based dose response assay to identify inhibitors of NADPH oxidase 1 (NOX1).; type: functional
[5] = target: T2, Replicative DNA helicase DnaB (Mycobacterium tuberculosis, UniProt P9WMR3); assay: DnaB intein splicing inhibitors, dose response, biochemical, cell-free fluorescence (AID 449749); type: functional
T2 sequence (P9WMR3 whole entry): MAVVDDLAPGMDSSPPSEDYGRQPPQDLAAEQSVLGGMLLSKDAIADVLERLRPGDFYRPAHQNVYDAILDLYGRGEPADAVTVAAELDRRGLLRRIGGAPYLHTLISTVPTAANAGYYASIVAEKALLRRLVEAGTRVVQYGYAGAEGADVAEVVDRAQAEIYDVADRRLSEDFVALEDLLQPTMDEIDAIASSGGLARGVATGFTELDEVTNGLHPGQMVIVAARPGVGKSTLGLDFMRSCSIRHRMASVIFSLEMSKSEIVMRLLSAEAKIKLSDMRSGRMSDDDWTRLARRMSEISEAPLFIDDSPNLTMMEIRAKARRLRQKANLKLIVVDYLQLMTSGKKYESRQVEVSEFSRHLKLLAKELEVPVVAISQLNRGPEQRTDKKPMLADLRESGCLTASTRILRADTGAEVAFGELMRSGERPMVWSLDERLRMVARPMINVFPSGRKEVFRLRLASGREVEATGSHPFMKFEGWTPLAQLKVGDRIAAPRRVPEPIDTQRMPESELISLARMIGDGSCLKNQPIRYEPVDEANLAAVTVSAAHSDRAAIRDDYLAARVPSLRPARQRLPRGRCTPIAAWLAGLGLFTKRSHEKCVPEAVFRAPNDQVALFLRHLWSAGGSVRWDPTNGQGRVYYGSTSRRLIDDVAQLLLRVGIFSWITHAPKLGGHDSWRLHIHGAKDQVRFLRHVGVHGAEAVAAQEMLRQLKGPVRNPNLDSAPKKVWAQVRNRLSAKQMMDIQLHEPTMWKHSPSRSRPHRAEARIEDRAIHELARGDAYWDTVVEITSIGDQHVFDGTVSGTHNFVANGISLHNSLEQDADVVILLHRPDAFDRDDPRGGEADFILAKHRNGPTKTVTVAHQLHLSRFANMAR

[6] = target: T3, Protein RecA (Mycobacterium tuberculosis, UniProt P9WHJ3); assay: Fluorescence Cell-Free Homogeneous Dose Retest to Identify Inhibitors of RecA-Intein Splicing Activity. [Related pubchem assays (depositor defined):AID2097, AID2223, AID489010, AID492950]; type: functional
T3 sequence (P9WHJ3 whole entry): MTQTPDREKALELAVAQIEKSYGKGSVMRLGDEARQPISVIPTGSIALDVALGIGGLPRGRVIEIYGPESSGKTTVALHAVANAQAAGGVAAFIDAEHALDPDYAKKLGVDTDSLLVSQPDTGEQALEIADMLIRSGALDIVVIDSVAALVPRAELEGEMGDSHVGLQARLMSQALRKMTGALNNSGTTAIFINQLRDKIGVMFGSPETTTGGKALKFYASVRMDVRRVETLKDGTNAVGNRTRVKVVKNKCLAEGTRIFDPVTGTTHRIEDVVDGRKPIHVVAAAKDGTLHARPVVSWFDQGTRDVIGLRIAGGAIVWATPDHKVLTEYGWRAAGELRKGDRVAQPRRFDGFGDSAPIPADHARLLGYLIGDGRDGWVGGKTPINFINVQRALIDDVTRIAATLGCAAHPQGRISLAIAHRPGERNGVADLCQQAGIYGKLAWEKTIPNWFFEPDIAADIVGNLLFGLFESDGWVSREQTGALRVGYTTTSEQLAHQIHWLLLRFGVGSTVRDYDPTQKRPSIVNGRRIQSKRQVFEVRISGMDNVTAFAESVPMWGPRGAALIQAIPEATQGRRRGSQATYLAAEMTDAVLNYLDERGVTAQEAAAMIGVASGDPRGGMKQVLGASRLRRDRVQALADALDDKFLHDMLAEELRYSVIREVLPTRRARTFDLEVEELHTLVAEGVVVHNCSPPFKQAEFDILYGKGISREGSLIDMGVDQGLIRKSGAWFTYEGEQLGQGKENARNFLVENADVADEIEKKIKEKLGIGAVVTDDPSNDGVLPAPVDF

[7] = target: Induced myeloid leukemia cell differentiation protein Mcl-1 (Homo sapiens, UniProt Q07820); assay: MCL1-BIM BH3 interaction inhibitors, dose response, biochemical, fluorescence polarization, BIM-BH3 peptide, 1536-well (AID 2217)
Chain of Induced myeloid leukemia cell differentiation protein Mcl-1 (Q07820 whole entry): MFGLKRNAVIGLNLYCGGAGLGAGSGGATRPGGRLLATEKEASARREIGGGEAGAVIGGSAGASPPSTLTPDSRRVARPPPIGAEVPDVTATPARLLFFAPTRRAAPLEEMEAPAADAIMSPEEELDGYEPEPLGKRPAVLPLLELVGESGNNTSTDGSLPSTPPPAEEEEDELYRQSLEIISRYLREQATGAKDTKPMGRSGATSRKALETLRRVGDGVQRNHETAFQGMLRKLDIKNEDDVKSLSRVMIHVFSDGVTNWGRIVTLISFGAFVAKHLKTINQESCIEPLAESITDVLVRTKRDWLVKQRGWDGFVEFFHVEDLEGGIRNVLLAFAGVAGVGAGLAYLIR

[8] = target: Bcl-2-like protein 1 (Homo sapiens, UniProt Q07817); assay: BCL-XL inhibitors, dose response, selectivity assay for MCL1 inhibitor project, biochemical, fluorescence polarization, 1536-well (AID 2218)
Chain of Bcl-2-like protein 1 (Q07817 whole entry): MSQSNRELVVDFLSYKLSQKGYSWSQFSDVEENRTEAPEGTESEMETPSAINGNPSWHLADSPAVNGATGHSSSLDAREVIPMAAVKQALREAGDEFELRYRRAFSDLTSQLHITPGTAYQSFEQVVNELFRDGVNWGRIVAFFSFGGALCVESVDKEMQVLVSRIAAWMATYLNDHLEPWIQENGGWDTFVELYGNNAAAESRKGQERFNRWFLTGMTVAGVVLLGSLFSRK

[9] = target: Luciferin 4-monooxygenase (Photinus pyralis, UniProt P08659); assay: firefly luciferase enzyme inhibitors, dose response, biochemical, luminescence (AID 1891)
Chain of Luciferin 4-monooxygenase (P08659 whole entry): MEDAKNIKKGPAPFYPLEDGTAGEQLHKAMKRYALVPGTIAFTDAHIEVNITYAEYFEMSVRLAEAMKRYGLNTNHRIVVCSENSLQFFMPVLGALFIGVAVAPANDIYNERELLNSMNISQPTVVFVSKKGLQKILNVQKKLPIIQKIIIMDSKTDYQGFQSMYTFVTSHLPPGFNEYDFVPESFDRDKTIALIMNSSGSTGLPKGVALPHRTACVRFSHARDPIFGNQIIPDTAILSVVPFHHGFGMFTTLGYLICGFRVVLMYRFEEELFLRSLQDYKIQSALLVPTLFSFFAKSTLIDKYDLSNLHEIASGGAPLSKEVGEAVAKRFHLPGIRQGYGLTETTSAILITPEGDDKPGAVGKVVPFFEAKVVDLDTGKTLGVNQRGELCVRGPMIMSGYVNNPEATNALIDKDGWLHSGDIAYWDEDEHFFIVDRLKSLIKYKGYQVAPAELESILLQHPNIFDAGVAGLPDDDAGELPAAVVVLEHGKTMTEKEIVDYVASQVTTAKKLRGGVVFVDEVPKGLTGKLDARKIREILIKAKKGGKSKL

[10] = Fluorescence Cell-Based Dose Response to Identify Inhibitors of Thrombin Receptor-Activating Peptide SFLLRN-Mediated P-Selectin Induction on Platelets. [Related pubchem assays: 1663 (Primary HTS), 1889 (retest at dose ), 1891 (counterscreen), 1678 (Project Summary)]; type: functional
[11] = inhibitors of SFLLRN-triggered platelet P-selectin exposure, dose response, cell-based, fluorescence, flow cytometry, human platelets (AID 2511); type: functional
[12] = Luminescence Cell-Based Dose Confirmation HTS to Identify Inhibitors of Platelet Dense Granule Release. [Related pubchem assays: 1663 (Primary HTS), 1678 (Summary of Project)]; type: functional
[13] = target: T4, RNA-binding protein pos-1 (Caenorhabditis elegans, UniProt G5EF15); assay: inhibitors of POS-1/mex-3 RNA binding, dose response, biochemical, fluorescence polarization (AID 1964);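 note: purified POS-1 fused to maltose binding protein made in E. coli; potency of compounds blocking POS-1 binding to fluorescent RNA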
T4 sequence (G5EF15 whole entry): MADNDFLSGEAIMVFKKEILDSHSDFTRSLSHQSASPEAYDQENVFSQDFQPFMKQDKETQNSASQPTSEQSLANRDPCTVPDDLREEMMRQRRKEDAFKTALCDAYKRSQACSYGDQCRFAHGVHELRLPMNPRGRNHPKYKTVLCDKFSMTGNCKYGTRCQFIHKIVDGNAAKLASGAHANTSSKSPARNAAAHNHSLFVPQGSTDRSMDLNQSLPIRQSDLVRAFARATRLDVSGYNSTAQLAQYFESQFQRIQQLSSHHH

[14] = target: T5, Voltage-gated N-type calcium channel alpha-1B subunit/Amyloid beta A4 precursor protein-binding family A member 1 (Homo sapiens, UniProt Q00975+Q02410); type: protein assay
T5 sequence (Q00975 whole entry): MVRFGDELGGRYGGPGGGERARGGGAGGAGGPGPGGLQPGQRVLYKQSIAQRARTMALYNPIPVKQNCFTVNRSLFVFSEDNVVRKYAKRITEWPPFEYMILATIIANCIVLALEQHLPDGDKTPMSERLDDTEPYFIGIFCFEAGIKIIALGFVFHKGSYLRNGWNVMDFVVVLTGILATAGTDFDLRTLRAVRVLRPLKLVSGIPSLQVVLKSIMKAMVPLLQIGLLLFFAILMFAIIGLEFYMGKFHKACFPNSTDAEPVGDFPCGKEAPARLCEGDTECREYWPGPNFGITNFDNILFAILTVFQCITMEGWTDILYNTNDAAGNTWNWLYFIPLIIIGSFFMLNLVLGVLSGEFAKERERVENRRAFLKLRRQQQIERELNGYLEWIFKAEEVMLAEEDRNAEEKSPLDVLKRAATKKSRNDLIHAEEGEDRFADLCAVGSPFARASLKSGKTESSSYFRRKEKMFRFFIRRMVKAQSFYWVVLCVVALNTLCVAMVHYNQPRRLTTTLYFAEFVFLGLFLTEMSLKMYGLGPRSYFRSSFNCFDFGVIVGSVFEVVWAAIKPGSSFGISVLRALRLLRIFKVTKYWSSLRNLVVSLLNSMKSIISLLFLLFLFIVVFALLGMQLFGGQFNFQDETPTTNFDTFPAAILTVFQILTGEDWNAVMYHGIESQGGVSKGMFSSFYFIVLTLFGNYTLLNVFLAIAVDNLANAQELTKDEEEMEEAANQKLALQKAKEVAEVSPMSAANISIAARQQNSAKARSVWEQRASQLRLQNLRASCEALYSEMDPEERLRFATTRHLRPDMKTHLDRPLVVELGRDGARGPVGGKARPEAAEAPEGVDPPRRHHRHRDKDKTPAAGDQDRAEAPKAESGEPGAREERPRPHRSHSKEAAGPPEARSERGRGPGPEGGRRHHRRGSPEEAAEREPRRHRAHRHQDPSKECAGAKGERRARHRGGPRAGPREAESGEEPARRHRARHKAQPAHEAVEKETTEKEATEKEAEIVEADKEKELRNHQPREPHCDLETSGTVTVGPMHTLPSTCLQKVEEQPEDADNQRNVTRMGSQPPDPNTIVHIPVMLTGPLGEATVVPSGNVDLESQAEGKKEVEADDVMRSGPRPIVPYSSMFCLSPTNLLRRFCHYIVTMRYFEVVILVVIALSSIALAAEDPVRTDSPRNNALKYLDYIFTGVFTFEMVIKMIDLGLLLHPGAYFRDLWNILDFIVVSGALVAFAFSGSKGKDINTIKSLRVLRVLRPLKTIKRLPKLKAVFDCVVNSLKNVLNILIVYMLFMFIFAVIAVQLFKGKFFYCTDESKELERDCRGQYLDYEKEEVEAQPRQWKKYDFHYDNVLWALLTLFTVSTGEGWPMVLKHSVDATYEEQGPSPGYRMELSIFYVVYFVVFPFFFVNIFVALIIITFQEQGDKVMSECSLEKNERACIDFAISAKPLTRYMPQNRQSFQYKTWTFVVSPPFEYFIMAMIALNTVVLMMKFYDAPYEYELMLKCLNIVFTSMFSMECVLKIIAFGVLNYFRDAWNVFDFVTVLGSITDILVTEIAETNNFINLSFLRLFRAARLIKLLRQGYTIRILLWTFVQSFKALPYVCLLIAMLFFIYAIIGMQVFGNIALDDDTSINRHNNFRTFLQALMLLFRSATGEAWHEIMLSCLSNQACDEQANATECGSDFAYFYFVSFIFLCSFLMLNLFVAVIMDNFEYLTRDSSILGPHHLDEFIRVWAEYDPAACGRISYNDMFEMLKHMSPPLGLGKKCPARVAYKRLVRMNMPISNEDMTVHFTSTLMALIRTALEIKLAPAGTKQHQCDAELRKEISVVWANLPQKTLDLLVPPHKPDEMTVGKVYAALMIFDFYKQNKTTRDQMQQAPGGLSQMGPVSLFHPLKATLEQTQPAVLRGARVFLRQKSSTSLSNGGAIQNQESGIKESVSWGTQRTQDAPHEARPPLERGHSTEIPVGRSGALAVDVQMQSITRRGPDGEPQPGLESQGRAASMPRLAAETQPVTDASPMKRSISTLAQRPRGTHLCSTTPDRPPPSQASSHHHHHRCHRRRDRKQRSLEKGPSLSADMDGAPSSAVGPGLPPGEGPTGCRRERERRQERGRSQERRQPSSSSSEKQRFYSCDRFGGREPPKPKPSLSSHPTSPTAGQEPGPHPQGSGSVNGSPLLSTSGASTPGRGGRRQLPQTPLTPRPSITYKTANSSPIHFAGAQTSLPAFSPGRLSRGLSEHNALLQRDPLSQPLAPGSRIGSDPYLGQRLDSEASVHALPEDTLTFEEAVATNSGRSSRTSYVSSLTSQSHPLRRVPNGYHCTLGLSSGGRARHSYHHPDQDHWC
T5 sequence (Q02410 whole entry): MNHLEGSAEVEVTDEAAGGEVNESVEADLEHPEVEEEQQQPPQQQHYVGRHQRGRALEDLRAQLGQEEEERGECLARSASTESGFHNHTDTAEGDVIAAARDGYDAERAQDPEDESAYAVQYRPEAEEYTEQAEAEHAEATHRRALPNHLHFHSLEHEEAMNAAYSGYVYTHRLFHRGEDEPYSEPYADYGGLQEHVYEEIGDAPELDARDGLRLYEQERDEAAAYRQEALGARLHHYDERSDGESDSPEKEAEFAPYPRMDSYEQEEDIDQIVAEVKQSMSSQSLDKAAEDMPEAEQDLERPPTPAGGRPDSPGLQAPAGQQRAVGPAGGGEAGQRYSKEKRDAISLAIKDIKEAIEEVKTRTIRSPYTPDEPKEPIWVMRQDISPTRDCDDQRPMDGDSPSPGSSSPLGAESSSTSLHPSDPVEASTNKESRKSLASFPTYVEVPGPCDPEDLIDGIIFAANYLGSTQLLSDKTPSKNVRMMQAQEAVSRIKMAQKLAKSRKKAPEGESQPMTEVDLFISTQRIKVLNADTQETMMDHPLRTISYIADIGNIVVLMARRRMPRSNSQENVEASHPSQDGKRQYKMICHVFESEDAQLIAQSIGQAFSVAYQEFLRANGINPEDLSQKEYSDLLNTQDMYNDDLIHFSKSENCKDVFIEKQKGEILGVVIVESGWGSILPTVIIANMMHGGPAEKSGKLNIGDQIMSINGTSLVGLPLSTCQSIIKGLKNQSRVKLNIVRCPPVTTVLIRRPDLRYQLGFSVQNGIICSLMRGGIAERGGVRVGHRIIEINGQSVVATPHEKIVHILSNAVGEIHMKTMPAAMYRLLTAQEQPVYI

[15] = target: T6, Zinc finger protein mex-5 (Caenorhabditis elegans, UniProt Q9XUB2); assay: MEX-5/TCR-2 RNA interaction inhibitors, dose response, biochemical, C. elegans, fluorescence polarization (AID 1960)
T6 sequence (Q9XUB2 whole entry): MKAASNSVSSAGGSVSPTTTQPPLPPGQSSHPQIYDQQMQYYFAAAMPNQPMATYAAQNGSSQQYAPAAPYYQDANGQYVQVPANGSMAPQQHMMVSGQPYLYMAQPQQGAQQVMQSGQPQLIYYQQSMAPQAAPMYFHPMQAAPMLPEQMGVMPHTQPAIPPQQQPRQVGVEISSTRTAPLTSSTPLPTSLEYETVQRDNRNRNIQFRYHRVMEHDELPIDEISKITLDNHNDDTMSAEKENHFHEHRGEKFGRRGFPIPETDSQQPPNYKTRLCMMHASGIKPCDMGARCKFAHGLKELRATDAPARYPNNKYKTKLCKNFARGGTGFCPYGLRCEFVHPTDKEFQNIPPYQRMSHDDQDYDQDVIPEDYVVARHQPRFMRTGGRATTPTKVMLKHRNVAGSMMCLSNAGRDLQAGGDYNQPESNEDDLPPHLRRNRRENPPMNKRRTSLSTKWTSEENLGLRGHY

[16] = target: T5, Voltage-gated N-type calcium channel alpha-1B subunit/Amyloid beta A4 precursor protein-binding family A member 1; type: protein assay; remark: listed apart in the source
[17] = target: T7, Mannose-6-phosphate isomerase (Homo sapiens, UniProt P34949); assay: inhibitors of human PMI, primary screen, biochemical, fluorescence intensity, coupled assay (AID 1209)
T7 sequence (P34949 whole entry): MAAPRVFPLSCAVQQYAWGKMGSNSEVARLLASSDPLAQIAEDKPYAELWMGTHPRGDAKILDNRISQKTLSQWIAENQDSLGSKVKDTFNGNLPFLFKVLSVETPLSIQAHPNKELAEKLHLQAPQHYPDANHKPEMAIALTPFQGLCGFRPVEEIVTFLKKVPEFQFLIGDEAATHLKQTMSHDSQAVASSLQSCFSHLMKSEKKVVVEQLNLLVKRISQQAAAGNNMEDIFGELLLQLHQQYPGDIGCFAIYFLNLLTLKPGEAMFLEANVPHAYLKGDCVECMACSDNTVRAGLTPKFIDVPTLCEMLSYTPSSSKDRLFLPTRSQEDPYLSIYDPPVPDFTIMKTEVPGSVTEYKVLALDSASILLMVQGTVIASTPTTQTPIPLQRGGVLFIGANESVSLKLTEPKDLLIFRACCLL

Chain of Sphingosine 1-phosphate receptor 3 (Q99500 whole entry): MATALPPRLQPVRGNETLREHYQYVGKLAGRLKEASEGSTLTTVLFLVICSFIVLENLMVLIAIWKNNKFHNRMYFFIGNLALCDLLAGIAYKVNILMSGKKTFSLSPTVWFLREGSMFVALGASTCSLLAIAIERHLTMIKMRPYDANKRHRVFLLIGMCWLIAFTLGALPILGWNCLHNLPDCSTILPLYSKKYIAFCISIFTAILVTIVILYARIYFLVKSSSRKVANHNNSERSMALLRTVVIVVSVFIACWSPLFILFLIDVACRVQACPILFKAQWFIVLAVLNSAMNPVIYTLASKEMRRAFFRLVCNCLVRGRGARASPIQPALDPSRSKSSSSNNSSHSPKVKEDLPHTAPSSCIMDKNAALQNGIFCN

SMILES: O=C(CCCN1CCC2(CC1)C(=O)NCN2c1ccccc1)c1ccc(F)cc1 [SPIPERONE]
- IC50 [1]: > 50 µM (not active)
- EC50 [2]: 6.68 µM (active)
- IC50 [3]: > 50 µM (not active)

SMILES: CC(=O)N1c2ccccc2Sc2ccccc21
- IC50 [4]: 4.57 µM (active)

SMILES: CC(=O)OCCCNc1cc(SCc2ccco2)c2nonc2c1[N+](=O)[O-]
- AC50 [5]: 4.6 µM (active)
- EC50 [6]: 3.49 µM (active)
- IC50 [7]: > 36.3 µM (not active)
- IC50 [8]: > 109 µM (not active)

SMILES: O=C(Nc1cccc(NC(=O)c2ccccc2Cl)c1)c1ccco1
- EC50 [9]: > 112 µM (not active)
- EC50 [10]: < 1 µM (active)
- EC50 [11]: < 0.3 µM (active)
- EC50 [12]: 5.86 µM (active)

SMILES: NC1=CC(=O)c2cccc3cccc1c23
- EC50 [13]: 7.46 µM (inconclusive)
- IC50 [14]: > 50 µM (inactive)
- EC50 [15]: 1.98 µM (inconclusive)
- IC50 [16]: 12.7 µM (active)
- IC50 [17]: 16.7 µM (active)
